# Measurements reported in ChEMBL document CHEMBL5723582, “Data for DCP probe T-10430” (2024).
# Legend:
# Conditions in all cases: Compound concentration 1.0 uM
# [1] = biological target: Sphingosine 1-phosphate receptor 3 (Homo sapiens) (UniProt Q99500); test: RLU of S1PR3 at 1.0 µM in the […] PRESTO-Tango GPCRome screen
# [2] = biological target: Growth hormone-releasing hormone receptor (Homo sapiens) (UniProt Q02643); test: RLU of GHRHR at 1.0 µM in the […] PRESTO-Tango GPCRome screen
# [3] = biological target: Neuropeptide Y receptor type 2 (Homo sapiens) (UniProt P49146); test: RLU of NPY2R at 1.0 µM in the […] PRESTO-Tango GPCRome screen
# [4] = biological target: Vasoactive intestinal polypeptide receptor 2 (Homo sapiens) (UniProt P41587); test: RLU of VIPR2 at 1.0 µM in the […] PRESTO-Tango GPCRome screen
# [5] = biological target: G-protein coupled receptor 20 (Homo sapiens) (UniProt Q99678); test: RLU of GPR20 at 1.0 µM in the […] PRESTO-Tango GPCRome screen
# [6] = biological target: Histamine H3 receptor (Homo sapiens) (UniProt Q9Y5N1); test: RLU of HRH3 at 1.0 µM in the Aequorin PRESTO-Tango GPCRome screen
# [7] = biological target: Somatostatin receptor type 5 (Homo sapiens) (UniProt P35346); test: RLU of SSTR5 at 1.0 µM in the […] PRESTO-Tango GPCRome screen
# [8] = biological target: Beta-1 adrenergic receptor (Homo sapiens) (UniProt P08588); test: RLU of ADRB1 at 1.0 µM in the […] PRESTO-Tango GPCRome screen
# [9] = biological target: N-arachidonyl glycine receptor (Homo sapiens) (UniProt Q14330); test: RLU of GPR18 at 1.0 µM in the […] PRESTO-Tango GPCRome screen
# [10] = biological target: G-protein coupled receptor 35 (Homo sapiens) (UniProt Q9HC97); test: RLU of GPR35 at 1.0 µM in the […] PRESTO-Tango GPCRome screen
# [11] = biological target: 5-hydroxytryptamine receptor 1A (Homo sapiens) (UniProt P08908); test: RLU of HTR1A at 1.0 µM in the Aequorin PRESTO-Tango GPCRome screen
# [12] = biological target: Motilin receptor (Homo sapiens) (UniProt O43193); test: RLU of MLNR at 1.0 µM in the […] PRESTO-Tango GPCRome screen
# [13] = biological target: Sphingosine 1-phosphate receptor 2 (Homo sapiens) (UniProt O95136); test: RLU of S1PR2 at 1.0 µM in the […] PRESTO-Tango GPCRome screen
# [14] = biological target: G-protein coupled receptor 135 (Homo sapiens) (UniProt Q8IZ08); test: RLU of GPR135 at 1.0 µM in the […] PRESTO-Tango GPCRome screen
# [15] = biological target: Alpha-2C adrenergic receptor (Homo sapiens) (UniProt P18825); test: RLU of ADRA2C at 1.0 µM in the […] PRESTO-Tango GPCRome screen
# [16] = biological target: Alpha-2B adrenergic receptor (Homo sapiens) (UniProt P18089); test: RLU of ADRA2B at 1.0 µM in the […] PRESTO-Tango GPCRome screen
# [17] = biological target: D(4) dopamine receptor (Homo sapiens) (UniProt P21917); test: RLU of DRD4 at 1.0 µM in the […] PRESTO-Tango GPCRome screen
# Opsin-5 (Homo sapiens) = Opsin-5 (Homo sapiens) (UniProt Q6U736); test: RLU of OPN5 at 1.0 µM in the […] PRESTO-Tango GPCRome screen
# [18] = biological target: Alpha-2A adrenergic receptor (Homo sapiens) (UniProt P08913); test: RLU of ADRA2A at 1.0 µM in the […] PRESTO-Tango GPCRome screen
# [19] = biological target: Galanin receptor type 2 (Homo sapiens) (UniProt O43603); test: RLU of GAL2 at 1.0 µM in the […] PRESTO-Tango GPCRome screen
# [20] = biological target: Orexin receptor type 1 (Homo sapiens) (UniProt O43613); test: RLU of HCTR1 at 1.0 µM in the Aequorin PRESTO-Tango GPCRome screen
# [21] = biological target: P2Y purinoceptor 6 (Homo sapiens) (UniProt Q15077); test: RLU of P2RY6 at 1.0 µM in the […] PRESTO-Tango GPCRome screen
# [22] = biological target: Mas-related G-protein coupled receptor member G (Homo sapiens) (UniProt Q86SM5); test: RLU of MRGPRG at 1.0 µM in the […] PRESTO-Tango GPCRome screen
# [23] = biological target: Uracil nucleotide/cysteinyl leukotriene receptor (Homo sapiens) (UniProt Q13304); test: RLU of GPR17 at 1.0 µM in the […] PRESTO-Tango GPCRome screen
# [24] = biological target: G-protein coupled receptor 83 (Homo sapiens) (UniProt Q9NYM4); test: RLU of GPR83 at 1.0 µM in the […] PRESTO-Tango GPCRome screen
# [25] = biological target: Free fatty acid receptor 2 (Homo sapiens) (UniProt O15552); test: RLU of FFA2 (GPR43) at 1.0 µM in the […] PRESTO-Tango GPCRome screen
# [26] = biological target: Muscarinic acetylcholine receptor M3 (Homo sapiens) (UniProt P20309); test: RLU of CHRM3 at 1.0 µM in the […] PRESTO-Tango GPCRome screen
# [27] = biological target: Probable G-protein coupled receptor 142 (Homo sapiens) (UniProt Q7Z601); test: RLU of GPR142 at 1.0 µM in the […] PRESTO-Tango GPCRome screen
# [28] = biological target: Probable G-protein coupled receptor 156 (Homo sapiens) (UniProt Q8NFN8); test: RLU of GPR156 at 1.0 µM in the […] PRESTO-Tango GPCRome screen
# [29] = biological target: Probable G-protein coupled receptor 101 (Homo sapiens) (UniProt Q96P66); test: RLU of GPR101 at 1.0 µM in the […] PRESTO-Tango GPCRome screen
# [30] = biological target: Prostaglandin D2 receptor (Homo sapiens) (UniProt Q13258); test: RLU of PTGDR at 1.0 µM in the […] PRESTO-Tango GPCRome screen
# [31] = biological target: Vasoactive intestinal polypeptide receptor 1 (Homo sapiens) (UniProt P32241); test: RLU of VIPR1 at 1.0 µM in the […] PRESTO-Tango GPCRome screen
# [32] = biological target: Probable G-protein coupled receptor 148 (Homo sapiens) (UniProt Q8TDV2); test: RLU of GPR148 at 1.0 µM in the […] PRESTO-Tango GPCRome screen
# [33] = biological target: C-C chemokine receptor type 4 (Homo sapiens) (UniProt P51679); test: RLU of CCR4 at 1.0 µM in the […] PRESTO-Tango GPCRome screen
# [34] = biological target: N-formyl peptide receptor 2 (Homo sapiens) (UniProt P25090); test: RLU of FPR2 at 1.0 µM in the […] PRESTO-Tango GPCRome screen
# Chain of 5-hydroxytryptamine receptor 1A (Homo sapiens) (P08908 whole entry): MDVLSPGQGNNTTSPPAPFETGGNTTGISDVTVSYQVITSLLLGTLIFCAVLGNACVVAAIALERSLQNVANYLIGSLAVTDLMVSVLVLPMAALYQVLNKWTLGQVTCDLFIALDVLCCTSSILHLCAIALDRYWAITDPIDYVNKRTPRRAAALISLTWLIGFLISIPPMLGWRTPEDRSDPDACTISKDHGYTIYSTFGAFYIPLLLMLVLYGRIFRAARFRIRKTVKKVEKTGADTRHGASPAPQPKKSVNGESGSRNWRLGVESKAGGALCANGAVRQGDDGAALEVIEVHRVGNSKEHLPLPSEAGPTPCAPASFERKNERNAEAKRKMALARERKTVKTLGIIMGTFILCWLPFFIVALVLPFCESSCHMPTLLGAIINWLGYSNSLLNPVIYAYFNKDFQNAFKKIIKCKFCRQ
# Chain of Growth hormone-releasing hormone receptor (Homo sapiens) (Q02643 whole entry): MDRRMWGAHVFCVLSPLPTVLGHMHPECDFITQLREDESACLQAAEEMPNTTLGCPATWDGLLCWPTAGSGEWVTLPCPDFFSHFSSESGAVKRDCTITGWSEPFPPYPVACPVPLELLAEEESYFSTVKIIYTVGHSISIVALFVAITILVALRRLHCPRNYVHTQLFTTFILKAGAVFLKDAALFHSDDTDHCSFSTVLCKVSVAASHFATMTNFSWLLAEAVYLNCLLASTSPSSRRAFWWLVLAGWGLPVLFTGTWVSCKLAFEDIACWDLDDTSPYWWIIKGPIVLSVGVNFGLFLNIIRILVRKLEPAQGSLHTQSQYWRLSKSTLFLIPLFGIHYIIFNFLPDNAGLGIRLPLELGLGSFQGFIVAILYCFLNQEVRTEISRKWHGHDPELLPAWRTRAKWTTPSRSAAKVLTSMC
# Chain of Somatostatin receptor type 5 (Homo sapiens) (P35346 whole entry): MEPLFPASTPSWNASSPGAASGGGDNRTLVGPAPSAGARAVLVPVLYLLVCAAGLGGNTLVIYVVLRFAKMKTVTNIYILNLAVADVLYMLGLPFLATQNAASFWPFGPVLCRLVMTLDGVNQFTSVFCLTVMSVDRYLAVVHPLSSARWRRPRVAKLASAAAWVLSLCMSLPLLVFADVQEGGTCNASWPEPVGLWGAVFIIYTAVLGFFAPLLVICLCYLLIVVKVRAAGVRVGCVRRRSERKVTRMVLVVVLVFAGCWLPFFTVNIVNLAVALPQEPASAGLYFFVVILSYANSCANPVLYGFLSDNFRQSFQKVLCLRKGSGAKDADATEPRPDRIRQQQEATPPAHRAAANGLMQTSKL
# Chain of Neuropeptide Y receptor type 2 (Homo sapiens) (P49146 whole entry): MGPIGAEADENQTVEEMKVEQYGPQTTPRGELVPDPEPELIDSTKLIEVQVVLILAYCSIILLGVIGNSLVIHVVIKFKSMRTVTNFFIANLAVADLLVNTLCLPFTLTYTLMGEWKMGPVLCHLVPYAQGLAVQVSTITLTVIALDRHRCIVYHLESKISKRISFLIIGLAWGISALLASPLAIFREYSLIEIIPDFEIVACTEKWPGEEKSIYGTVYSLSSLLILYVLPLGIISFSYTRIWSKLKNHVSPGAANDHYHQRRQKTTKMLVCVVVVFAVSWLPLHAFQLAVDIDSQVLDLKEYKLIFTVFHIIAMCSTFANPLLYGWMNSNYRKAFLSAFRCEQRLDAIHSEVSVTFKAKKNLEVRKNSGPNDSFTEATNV
# Chain of N-arachidonyl glycine receptor (Homo sapiens) (Q14330 whole entry): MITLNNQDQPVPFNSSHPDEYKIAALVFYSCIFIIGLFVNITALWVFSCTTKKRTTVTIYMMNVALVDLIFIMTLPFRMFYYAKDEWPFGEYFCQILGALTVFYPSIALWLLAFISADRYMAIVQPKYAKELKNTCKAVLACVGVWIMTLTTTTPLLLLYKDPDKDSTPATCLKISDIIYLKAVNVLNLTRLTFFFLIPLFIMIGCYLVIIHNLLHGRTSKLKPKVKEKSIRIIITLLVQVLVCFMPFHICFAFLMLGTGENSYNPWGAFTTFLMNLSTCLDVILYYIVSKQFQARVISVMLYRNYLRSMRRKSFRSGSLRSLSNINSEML
# Chain of G-protein coupled receptor 35 (Homo sapiens) (Q9HC97 whole entry): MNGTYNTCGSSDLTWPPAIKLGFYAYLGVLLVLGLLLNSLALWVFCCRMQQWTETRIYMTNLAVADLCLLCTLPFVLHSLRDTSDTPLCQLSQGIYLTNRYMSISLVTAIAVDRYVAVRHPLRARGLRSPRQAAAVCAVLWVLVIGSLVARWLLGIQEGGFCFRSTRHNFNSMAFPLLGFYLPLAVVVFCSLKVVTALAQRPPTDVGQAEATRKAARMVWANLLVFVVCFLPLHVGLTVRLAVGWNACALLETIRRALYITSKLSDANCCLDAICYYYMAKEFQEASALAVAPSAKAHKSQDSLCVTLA
# Chain of Alpha-2C adrenergic receptor (Homo sapiens) (P18825 whole entry): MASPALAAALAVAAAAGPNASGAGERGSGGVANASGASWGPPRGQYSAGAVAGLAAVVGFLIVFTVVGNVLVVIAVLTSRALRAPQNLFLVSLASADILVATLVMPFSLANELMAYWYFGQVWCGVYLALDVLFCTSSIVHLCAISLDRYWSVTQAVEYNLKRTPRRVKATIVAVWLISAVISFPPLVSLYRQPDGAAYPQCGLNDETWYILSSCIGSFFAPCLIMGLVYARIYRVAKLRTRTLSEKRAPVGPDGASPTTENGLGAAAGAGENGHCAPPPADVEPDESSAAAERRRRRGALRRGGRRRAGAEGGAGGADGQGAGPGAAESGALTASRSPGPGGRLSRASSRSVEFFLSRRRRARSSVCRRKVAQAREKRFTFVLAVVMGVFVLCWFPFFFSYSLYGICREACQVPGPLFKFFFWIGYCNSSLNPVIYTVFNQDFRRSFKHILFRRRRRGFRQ
# Chain of G-protein coupled receptor 20 (Homo sapiens) (Q99678 whole entry): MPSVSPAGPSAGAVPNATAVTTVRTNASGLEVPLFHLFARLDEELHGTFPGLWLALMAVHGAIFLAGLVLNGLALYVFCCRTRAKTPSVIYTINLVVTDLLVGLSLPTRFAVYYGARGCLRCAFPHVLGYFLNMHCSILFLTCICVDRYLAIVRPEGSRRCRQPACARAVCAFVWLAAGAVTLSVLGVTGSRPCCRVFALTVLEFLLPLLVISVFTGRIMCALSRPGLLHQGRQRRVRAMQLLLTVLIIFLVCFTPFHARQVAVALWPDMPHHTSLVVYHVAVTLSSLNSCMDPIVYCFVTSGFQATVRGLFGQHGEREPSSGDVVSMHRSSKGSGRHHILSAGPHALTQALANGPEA
# Chain of Sphingosine 1-phosphate receptor 2 (Homo sapiens) (O95136 whole entry): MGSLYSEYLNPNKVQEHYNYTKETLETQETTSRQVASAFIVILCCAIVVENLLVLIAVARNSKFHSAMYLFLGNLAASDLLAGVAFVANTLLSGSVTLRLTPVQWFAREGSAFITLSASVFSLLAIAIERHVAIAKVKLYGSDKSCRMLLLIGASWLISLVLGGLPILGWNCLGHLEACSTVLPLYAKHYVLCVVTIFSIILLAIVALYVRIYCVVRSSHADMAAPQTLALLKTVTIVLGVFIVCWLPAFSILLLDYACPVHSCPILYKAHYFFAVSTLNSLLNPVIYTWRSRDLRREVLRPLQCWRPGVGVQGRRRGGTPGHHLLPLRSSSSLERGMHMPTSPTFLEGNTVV
# Chain of Probable G-protein coupled receptor 156 (Homo sapiens) (Q8NFN8 whole entry): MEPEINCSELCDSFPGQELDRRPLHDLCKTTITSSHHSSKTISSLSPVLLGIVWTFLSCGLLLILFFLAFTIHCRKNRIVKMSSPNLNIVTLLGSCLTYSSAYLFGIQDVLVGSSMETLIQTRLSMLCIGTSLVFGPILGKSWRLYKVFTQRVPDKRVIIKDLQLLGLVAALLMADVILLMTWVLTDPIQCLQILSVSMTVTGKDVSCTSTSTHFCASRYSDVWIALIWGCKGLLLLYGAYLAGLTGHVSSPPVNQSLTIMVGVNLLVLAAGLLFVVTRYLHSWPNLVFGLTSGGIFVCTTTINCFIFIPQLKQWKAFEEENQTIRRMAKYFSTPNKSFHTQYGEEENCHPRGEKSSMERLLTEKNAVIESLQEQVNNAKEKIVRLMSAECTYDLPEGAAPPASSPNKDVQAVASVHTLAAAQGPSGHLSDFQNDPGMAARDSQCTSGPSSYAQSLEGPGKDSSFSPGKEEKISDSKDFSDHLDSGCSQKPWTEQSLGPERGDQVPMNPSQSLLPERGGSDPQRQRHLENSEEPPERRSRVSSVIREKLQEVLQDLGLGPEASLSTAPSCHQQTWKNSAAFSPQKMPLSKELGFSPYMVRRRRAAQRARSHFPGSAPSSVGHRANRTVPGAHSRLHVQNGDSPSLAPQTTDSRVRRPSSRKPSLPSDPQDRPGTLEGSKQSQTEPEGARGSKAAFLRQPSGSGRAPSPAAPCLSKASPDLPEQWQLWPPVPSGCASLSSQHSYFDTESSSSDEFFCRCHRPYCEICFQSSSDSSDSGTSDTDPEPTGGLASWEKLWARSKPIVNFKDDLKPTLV
# Chain of G-protein coupled receptor 83 (Homo sapiens) (Q9NYM4 whole entry): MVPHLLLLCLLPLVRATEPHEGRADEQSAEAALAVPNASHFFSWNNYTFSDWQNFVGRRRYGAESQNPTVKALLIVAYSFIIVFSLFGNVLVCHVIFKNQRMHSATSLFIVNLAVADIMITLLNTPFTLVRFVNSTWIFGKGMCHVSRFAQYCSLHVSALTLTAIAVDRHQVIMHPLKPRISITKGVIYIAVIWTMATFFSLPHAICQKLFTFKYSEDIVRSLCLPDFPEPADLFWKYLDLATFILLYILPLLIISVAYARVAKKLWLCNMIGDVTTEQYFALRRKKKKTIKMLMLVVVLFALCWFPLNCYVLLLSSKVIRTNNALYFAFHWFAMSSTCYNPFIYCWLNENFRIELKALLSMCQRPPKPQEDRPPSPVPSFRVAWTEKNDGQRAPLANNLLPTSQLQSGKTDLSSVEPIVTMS
# Chain of Mas-related G-protein coupled receptor member G (Homo sapiens) (Q86SM5 whole entry): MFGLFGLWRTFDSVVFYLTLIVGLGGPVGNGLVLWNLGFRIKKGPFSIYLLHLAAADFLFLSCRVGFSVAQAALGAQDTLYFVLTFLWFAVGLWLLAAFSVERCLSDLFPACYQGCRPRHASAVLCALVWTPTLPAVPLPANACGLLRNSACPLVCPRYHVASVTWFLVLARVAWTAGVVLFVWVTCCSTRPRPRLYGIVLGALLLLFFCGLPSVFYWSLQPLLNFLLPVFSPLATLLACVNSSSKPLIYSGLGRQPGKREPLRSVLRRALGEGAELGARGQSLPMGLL
compound,measurement,setting,value
CCCCC(=O)N1CC2(C1)CN(c1ccccc1-c1nnn[nH]1)C2,RLU,[1],-1650
same,RLU,[2],-1060
same,RLU,[3],559
same,RLU,[4],-824
same,RLU,[5],-1200
same,RLU,[6],-6780
same,RLU,[7],-946
same,RLU,[8],19400
same,RLU,[9],-383
same,RLU,[10],2600
same,RLU,[11],1530
same,RLU,[12],-570
same,RLU,[13],401
same,RLU,[14],2860
same,RLU,[15],12100
same,RLU,[16],17900
same,RLU,[17],-1390
same,RLU,Opsin-5 (Homo sapiens),4000
same,RLU,[18],10100
same,RLU,[19],1140
same,RLU,[20],-2840
same,RLU,[21],-7240
same,RLU,[22],-560
same,RLU,[23],897
same,RLU,[24],834
same,RLU,[25],-5970
same,RLU,[26],6260
same,RLU,[27],2920
same,RLU,[28],1540
same,RLU,[29],-2170
same,RLU,[30],375
same,RLU,[31],-7190
same,RLU,[32],3090
same,RLU,[33],6410
same,RLU,[34],31.8
